Test results: patent US20080280952A1 (priority 2004, published 2008)

Target: T1, human cannabinoid CB2 receptor (Homo sapiens, UniProt P34972)
T1 construct: expressed in transfected cells; host or cells: Saccharomyces cerevisiae strain MMY23 (cassette integrated at the ura3 locus, GPD promoter)
Assay: Cannabinoid CB2 receptor agonist activity, yeast reporter assay
Assay type: cell-based
Conditions: for Emax: read-out: efficacy (Emax) at the cloned human cannabinoid CB2 receptor
Description: The cannabinoid CB2 receptor agonist activity of the compounds of formula (I) was determined in accordance with the following experimental method.
Yeast (Saccharomyces cerevisiae) cells expressing the human cannabinoid CB2 receptor were generated by integration of an expression cassette into the ura3 chromosomal locus of yeast strain MMY23. This cassette consisted of DNA sequence encoding the human CB2 receptor flanked by the yeast GPD promoter to the 5′ end of CB2 and a yeast transcriptional terminator sequence to the 3′ end of CB2. MMY23 expresses a yeast/mammalian chimeric G-protein alpha subunit in which the C-terminal 5 amino acids of Gpa1 are replaced with the C-terminal 5 amino acids of human Gαi3 (as described in Brown et al. (2000), Yeast 16:11-22).
Agonists were prepared as 10 mM stocks in DMSO. […] Agonist solutions in DMSO (1% final assay volume) were transferred into black, clear bottom, microtitre plates from NUNC (96- or 384-well). Cells were suspended at a density of 0.2 OD600/ml in SC media lacking histidine, uracil, tryptophan, adenine and leucine and supplemented with 10 mM 3-aminotriazole, 0.1M sodium phosphate pH 7.0, and […] fluorescein di-β-D-glucopyranoside (FDGlu). […] Fluorescence was plotted against compound concentration and iteratively curve fitted using a four parameter fit to generate a concentration effect value. Efficacy (Emax) was calculated from the equation
Equieffective molar ratio (EMR) values were calculated from the equation

T1 sequence (P34972 whole entry): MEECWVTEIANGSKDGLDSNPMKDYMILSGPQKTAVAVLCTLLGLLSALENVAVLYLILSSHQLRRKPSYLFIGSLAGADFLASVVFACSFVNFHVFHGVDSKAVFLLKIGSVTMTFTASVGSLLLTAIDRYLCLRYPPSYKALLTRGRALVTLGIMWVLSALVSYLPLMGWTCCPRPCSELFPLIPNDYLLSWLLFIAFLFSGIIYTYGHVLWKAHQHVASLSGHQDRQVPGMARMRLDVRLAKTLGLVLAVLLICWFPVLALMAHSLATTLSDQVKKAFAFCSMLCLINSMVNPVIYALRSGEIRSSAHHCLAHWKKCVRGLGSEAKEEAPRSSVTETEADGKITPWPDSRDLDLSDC

SMILES | EC50 [nM] | Emax [%]
O=C(NCC1CCOCC1)c1cnc(Nc2cccc(F)c2)cc1C1CCCC1 [Example 15, 4-Cyclopentyl-6-(3-fluoro-phenylamino)-N-(tetrahydro-pyran-4-ylmethyl)-nicotinamide] | 300 to 1000 | > 50
N#Cc1cccc(Nc2cc(C3CCCC3)c(C(=O)NCC3CCOCC3)cn2)c1 [Example 16, 6-(3-Cyano-phenylamino)-4-cyclopentyl-N-(tetrahydro-pyran-4-ylmethyl)-nicotinamide] | 300 to 1000 | > 50
Cc1cccc(Nc2cc(C3CCCC3)c(C(=O)NCC3CCOCC3)cn2)c1 [Example 17, Methanesulphonic acid,compound with 4-cyclopentyl-N-(tetrahydro-pyran-4-ylmethyl)-6-m-tolylamino-nicotinamide] | 300 to 1000 | > 50
O=C(NCC1CCOCC1)c1cnc(Nc2cccc(C(F)(F)F)c2F)cc1C1CC1 [Example 20, 4-Cyclopropyl-6-(2-fluoro-3-trifluoromethyl-phenylamino)-N-(tetrahydro-pyran-4-ylmethyl)-nicotinamide] | 300 to 1000 | > 50
O=C(NCC1CCOCC1)c1cnc(Nc2ccc(F)c(Cl)c2)cc1C1CC1 [Example 21, 6-(3-Chloro-4-fluoro-phenylamino)-4-cyclopropyl-N-(tetrahydro-pyran-4-ylmethyl)-nicotinamide] | 300 to 1000 | > 50
O=C(NCC1CCOCC1)c1cnc(Nc2ccc(F)cc2Cl)cc1C1CCCC1 [Example 22, 6-(2-Chloro-4-fluoro-phenylamino)-4-cyclopentyl-N-(tetrahydro-pyran-4-ylmethyl)-nicotinamide] | 300 to 1000 | > 50
Cc1cc(Cl)ccc1Nc1cc(C2CCCC2)c(C(=O)NCC2CCOCC2)cn1 [Example 23, 6-(4-Chloro-2-methyl-phenylamino)-4-cyclopentyl-N-(tetrahydro-pyran-4-ylmethyl)-nicotinamide] | 300 to 1000 | > 50
O=C(NCC1CCOCC1)c1cnc(Nc2ccc(Cl)cc2F)cc1C1CCCC1 [Example 24, 6-(4-Chloro-2-fluoro-phenylamino)-4-cyclopentyl-N-(tetrahydro-pyran-4-ylmethyl)-nicotinamide] | 300 to 1000 | > 50
O=C(NCC1CCOCC1)c1cnc(Nc2cccc(Cl)c2Cl)cc1C1CCCC1 [Example 25, 4-Cyclopentyl-6-(2,3-dichloro-phenylamino)-N-(tetrahydro-pyran-4-ylmethyl)-nicotinamide] | 300 to 1000 | > 50
COc1cccc(Nc2cc(C3CCCC3)c(C(=O)NCC3CCOCC3)cn2)c1 [Example 26, 4-Cyclopentyl-6-(3-methoxy-phenylamino)-N-(tetrahydro-pyran-4-ylmethyl)-nicotinamide] | 300 to 1000 | > 50
N#Cc1ccc(Nc2cc(C3CCCC3)c(C(=O)NCC3CCOCC3)cn2)cc1 [Example 27, 6-(4-Cyano-phenylamino)-4-cyclopentyl-N-(tetrahydro-pyran-4-ylmethyl)-nicotinamide] | 300 to 1000 | > 50
O=C(NCC1CCOCC1)c1cnc(Nc2ccc(Br)c(Cl)c2)cc1C1CC1 [Example 91, 6-(4-Bromo-3-chloro-phenylamino)-4-cyclopropyl-N-(tetrahydro-pyran-4-ylmethyl)-nicotinamide] | 300 to 1000 | > 50
O=C(NCC1CCOCC1)c1cnc(Nc2ccc(C(F)(F)F)c(F)c2)cc1C1CC1 [Example 92, 4-Cyclopropyl-6-(3-fluoro-4-trifluoromethyl-phenylamino)-N-(tetrahydro-pyran-4-ylmethyl)-nicotinamide] | 300 to 1000 | > 50
O=C(NCC1CCOCC1)c1cnc(Nc2ccc(F)c(C(F)(F)F)c2)cc1C1CC1 [Example 93, 4-Cyclopropyl-6-(4-fluoro-3-trifluoromethyl-phenylamino)-N-(tetrahydro-pyran-4-ylmethyl)-nicotinamide] | 300 to 1000 | > 50
O=C(NCC1CCOCC1)c1cnc(Nc2ccc(Br)cc2F)cc1C1CC1 [Example 94, 6-(4-Bromo-2-fluoro-phenylamino)-4-cyclopropyl-N-(tetrahydro-pyran-4-ylmethyl)-nicotinamide] | 300 to 1000 | > 50
Cc1cc(Cl)ccc1Nc1cc(C2CC2)c(C(=O)NCC2CCOCC2)cn1 [Example 95, 6-(4-Chloro-2-methyl-phenylamino)-4-cyclopropyl-N-(tetrahydro-pyran-4-ylmethyl)-nicotinamide] | 300 to 1000 | > 50

SMILES | EC50 [nM] | Emax [%]
O=C(NCC1CCOCC1)c1cnc(Nc2ccc(OC(F)(F)F)cc2Br)cc1C1CC1 [Example 96, 6-(2-Bromo-4-trifluoromethoxy-phenylamino)-4-cyclopropyl-N-(tetrahydro-pyran-4-ylmethyl)-nicotinamide] | 300 to 1000 | > 50
O=C(NCC1CCOCC1)c1cnc(Nc2ccc(Br)c(F)c2)cc1C1CC1 [Example 97, 6-(4-Bromo-3-fluoro-phenylamino)-4-cyclopropyl-N-(tetrahydro-pyran-4-ylmethyl)-nicotinamide] | 300 to 1000 | > 50
O=C(NCC1CCOCC1)c1cnc(Nc2ccc(Cl)cc2F)cc1C1CC1 [Example 98, 6-(4-Chloro-2-fluoro-phenylamino)-4-cyclopropyl-N-(tetrahydro-pyran-4-ylmethyl)-nicotinamide] | 300 to 1000 | > 50
O=C(NCC1CCCC1)c1cnc(Nc2ccc(F)cc2F)cc1C1CC1 [Example 99, N-Cyclopentylmethyl-4-cyclopropyl-6-(2,4-difluoro-phenylamino)-nicotinamide] | 300 to 1000 | > 50
O=C(NCC1CCOCC1)c1cnc(Nc2cc(Cl)ccc2F)cc1C1CC1 [Example 101, 6-(5-Chloro-2-fluoro-phenylamino)-4-cyclopropyl-N-(tetrahydro-pyran-4-ylmethyl)-nicotinamide] | 300 to 1000 | > 50
O=C(NCC1CCOCC1)c1cnc(Nc2cc(C(F)(F)F)ccc2F)cc1C1CC1 [Example 102, 4-Cyclopropyl-6-(2-fluoro-5-trifluoromethyl-phenylamino)-N-(tetrahydro-pyran-4-ylmethyl)-nicotinamide] | 300 to 1000 | > 50
O=C(NCC1CCOCC1)c1cnc(Nc2cc(C(F)(F)F)ccc2Cl)cc1C1CC1 [Example 103, 6-(2-Chloro-5-trifluoromethyl-phenylamino)-4-cyclopropyl-N-(tetrahydro-pyran-4-ylmethyl)-nicotinamide] | 300 to 1000 | > 50
O=C(NCC1CCOCC1)c1cnc(Nc2cc(C(F)(F)F)ccc2Br)cc1C1CC1 [Example 104, 6-(2-Bromo-5-trifluoromethyl-phenylamino)-4-cyclopropyl-N-(tetrahydro-pyran-4-ylmethyl)-nicotinamide] | 300 to 1000 | > 50
Cc1ccc(Cl)cc1Nc1cc(C2CC2)c(C(=O)NCC2CCOCC2)cn1 [Example 105, 6-(5-Chloro-2-methyl-phenylamino)-4-cyclopropyl-N-(tetrahydro-pyran-4-ylmethyl)-nicotinamide] | 300 to 1000 | > 50
Cc1cc(C#N)ccc1Nc1cc(C2CC2)c(C(=O)NCC2CCOCC2)cn1 [Example 106, 6-(4-Cyano-2-methyl-phenylamino)-4-cyclopropyl-N-(tetrahydro-pyran-4-ylmethyl)-nicotinamide] | 300 to 1000 | > 50
Cc1c(Nc2cc(C3CC3)c(C(=O)NCC3CCOCC3)cn2)cccc1C(F)(F)F [Example 107, 4-Cyclopropyl-6-(2-methyl-3-trifluoromethyl-phenylamino)-N-(tetrahydro-pyran-4-ylmethyl)-nicotinamide] | 300 to 1000 | > 50
O=C(NCC1CCOCC1)c1cnc(Nc2cc(F)ccc2Cl)cc1C1CC1 [Example 108, 6-(2-Chloro-5-fluoro-phenylamino)-4-cyclopropyl-N-(tetrahydro-pyran-4-ylmethyl)-nicotinamide] | 300 to 1000 | > 50
Cc1cccc(Nc2cc(C3CC3)c(C(=O)NCC3CCOCC3)cn2)c1C#N [Example 109, 6-(2-Cyano-3-methyl-phenylamino)-4-cyclopropyl-N-(tetrahydro-pyran-4-ylmethyl)-nicotinamide] | 300 to 1000 | > 50
Cc1cc(Nc2cc(C3CC3)c(C(=O)NCC3CCOCC3)cn2)ccc1Br [Example 110, 6-(4-Bromo-3-methyl-phenylamino)-4-cyclopropyl-N-(tetrahydro-pyran-4-ylmethyl)-nicotinamide] | 300 to 1000 | > 50
Cc1ccc(Nc2cc(C3CC3)c(C(=O)NCC3CCOCC3)cn2)cc1F [Example 111, 4-Cyclopropyl-6-(3-fluoro-4-methyl-phenylamino)-N-(tetrahydro-pyran-4-ylmethyl)-nicotinamide] | 300 to 1000 | > 50
Cc1ccc(Nc2cc(C3CC3)c(C(=O)NCC3CCOCC3)cn2)cc1Cl [Example 112, 6-(3-Chloro-4-methyl-phenylamino)-4-cyclopropyl-N-(tetrahydro-pyran-4-ylmethyl)-nicotinamide] | 300 to 1000 | > 50
